Assay results reported in patent US20190255023A1, “COMBINATION THERAPY COMPRISING A THIAZOLE AND A CORTICOSTEROID TO TREAT SKIN CONDITIONS” (priority 2016, published 2019).

System: immortalized keratinocyte cell line HaCaT
Test: Resazurin assay, HaCaT cell viability / proliferation
Assay type: cell-based, human
Conditions: for suboptimal dose of reduced viability: single agent dose response, HaCaT, 24 hours (FIG. 1)
Method: The spontaneously immortalized, nontumorigenic skin keratinocyte cell line HaCaT was maintained in DMEM supplemented with 5% (v/v) FBS, 0.3 mg/ml glutamine and 0.1 mg/ml gentamicin at 37° C. with 5% CO2 in a humidified atmosphere. Subculture using trypsin-EDTA was performed every 3-4 days with split ratio of 1:3-1:4 to ensure actively proliferating cells.
Cells were seeded in 96 well plates in fully supplemented medium at a density of 3000 cells per well. […] Next day, the cells were treated with cPLA2α inhibitor Compound B, Compound A, vitamin D analogue Calcipotriol and corticosteroid hormone receptor agonist Betamethasone dipropionate for 24 hours. Resazurin was added next day according to the manufacturer's instruction (RnD Systems, UK) and left to incubate for […] in incubator at 37° C. with 5% CO2 in a humidified atmosphere before fluorescence was read at 544 nm excitation and 590 nm emission wavelength. The cells were observed under the microscope to evaluate possible morphology changes and signs of stress before addition of resazurin. The experiments were performed in series of 8 wells per treatment and repeated 3 times.

Compound | suboptimal dose of reduced viability [µM] | concentration up to which Hacat keratinocytes show resistance (single agent dose response (FIG. 1c), little effect seen attributed to solvent DMSO)
CCCCCCCOc1ccc(OCC(=O)c2nc(C(=O)OC)cs2)cc1 [Compound A1] | 10 | 
C[C@H]1C[C@H]2[C@@H]3CCC4=CC(=O)C=C[C@]4(C)[C@@]3(F)[C@@H](O)C[C@]2(C)[C@@]1(O)C(=O)CO [Betamethasone] | 50 | up to 200 μM
